Experimental data taken from US10316017B2, “COT modulators and methods of use thereof” (Gilead Sciences, Inc., priority 2015, dated 2019).
Like-named read-outs stand apart in the source and are kept apart here.

Tests used:
[1] = target: T1, human Cot catalytic domain (30-397 amino acids) (Homo sapiens, UniProt P41279); assay: High Throughput Cot Biochemical Assay (KinEASE TR-FRET); details: read-out: IC50 HTRF
T1 construct: Purified recombinant human Cot catalytic domain (30-397 amino acids) was purchased from Cama Biosciences; purchased Cama Biosciences (so in the source)
T1 sequence (P41279 30-397): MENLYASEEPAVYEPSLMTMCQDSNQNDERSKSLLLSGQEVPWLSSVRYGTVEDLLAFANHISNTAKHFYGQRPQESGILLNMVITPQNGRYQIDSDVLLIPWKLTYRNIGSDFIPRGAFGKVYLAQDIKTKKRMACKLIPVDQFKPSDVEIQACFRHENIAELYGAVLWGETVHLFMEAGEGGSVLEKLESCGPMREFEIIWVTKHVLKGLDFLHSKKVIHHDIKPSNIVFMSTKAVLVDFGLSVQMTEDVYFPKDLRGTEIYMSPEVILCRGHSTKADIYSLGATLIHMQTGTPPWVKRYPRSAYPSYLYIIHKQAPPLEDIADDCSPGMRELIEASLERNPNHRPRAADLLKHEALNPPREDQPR
Summary of the method: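 Recombinant human Cot catalytic domain (aa 30-397), 5 nM, with 1 μM STK3 peptide and 400 μM ATP in MOPS pH 7.0 buffer with MgOAc, DTT, BSA, NP-40, glycerol, 0.1% DMSO. Phosphorylated XL665-peptide detected by Eu-[…] antibody TR-FRET.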

[2] = tested on: TNFα production in LPS-stimulated human monocytes; assay: Cot Monocyte TNFα Cell Based Assay; details: Homo sapiens, Monocyte, read-out: EC50 TNF
Summary of the method: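 Human monocytes (5,000 cells/well) pretreated with compound for 1 hour at 37° C (0.5% DMSO), then stimulated with 50 pg/ml LPS for 4 hours. Total TNFα measured by TR-FRET after overnight antibody incubation at room temp, expressed as percent of control between unstimulated and stimulated cells.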

[3] = Cot KinEASE TR-FRET (HTRF) biochemical assay, 400 μM ATP
[4] = TNFα in LPS-stimulated human monocytes
[5] = Cot KinEASE TR-FRET, 400 μM ATP
[6] = LPS-stimulated human monocytes, TNFα TR-FRET
[7] = Cot biochemical HTRF (KinEASE TR-FRET) assay

Row | SMILES | IC50 [1, 3] [nM] | EC50 [2, 4] [nM] | IC50 [1, 5] [nM] | EC50 [2, 6] [nM] | IC50 [1, 7] [nM]
1 | [2H][C@@](Nc1cc(Cl)c2ncc(C#N)c(N[C@@H]3[C@@H]4CCC[C@@H]43)c2c1)(c1cn(C2CC2)nn1)c1ccccc1Cl [Example 124, 4-(((1R,5S,6s)-bicyclo [3.1.0]hexan-6-yl)amino)-8-chloro-6-(((2-chlorophenyl)(1-cyclopropyl-1H-1,2,3-triazol-4-yl)methyl-d)amino) quinoline-3-carbonitrile] | 14 | 218 |  |  | 
2 | C[C@H](Nc1c(C#N)cnc2c(Cl)cc(N[C@@H](c3ccccc3)c3cn(C4CCN(C(C)(C)C)CC4)nn3)cc12)C(C)(C)C [Example 486, 6-(((S)-(1-(1-(tert-butyl)piperidin-4-yl)-1H-1,2,3-triazol-4-yl)(phenyl)methyl)amino)-8-chloro-4-(((S)-3,3-dimethylbutan-2-yl)amino)quinoline-3-carbonitrile] |  | 637 |  |  | 24
3 | CC(C)(C)CNc1c(C#N)cnc2c(Br)cc(N[C@@H](c3cccc(C(=O)N4CC(O)C4)c3)c3cn(C4CC4)nn3)cc12 [Example 52, (S)-8-bromo-6-(((1-cyclopropyl-1H-1,2,3-triazol-4-yl) (3-(3-hydroxyazetidine-1-carbonyl)phenyl)methyl)amino)-4-(neopentylamino) quinoline-3-carbonitrile] | 4 | > 1000 |  |  | 
4 | [2H][C@@](Nc1cc(C(C)=O)c2ncc(C#N)c(NCC(C)(C)C)c2c1)(c1cn(C2CC2)nn1)c1ccccc1Cl [Compound 14] | 13 | 298 |  |  | 
5 | CC[C@@H](Nc1c(C#N)cnc2c(Cl)cc(N[C@H](c3cn(C4CC4)nn3)c3cc(C#N)ccc3Cl)cc12)c1ccccc1 [Example 258, 8-chloro-6-(((S)-(2-chloro-5-cyanophenyl)(1-cyclopropyl-1H-1,2,3-triazol-4-yl)methyl)amino)-4-(((R)-1-phenylpropyl)amino)quinoline-3-carbonitrile] | 44 | 651 |  |  | 
6 | CCOc1ccc(Nc2c(C#N)cnc3c(Cl)cc(N[C@@H](c4ccc(Cl)cc4)c4c[nH]nn4)cc23)cc1Cl [Example 649, (S)-8-chloro-4-((3-chloro-4-ethoxyphenyl)amino)-6-(((4-chlorophenyl)(1H-1,2,3-triazol-4-yl)methyl)amino)quinoline-3-carbonitrile] |  | 2740 |  |  | 1460
7 | N#Cc1cnc2c(Cl)cc(N[C@@H](c3ccccc3)c3cn(Cc4ccccn4)nn3)cc2c1Nc1ccc(F)c(Cl)c1 [Example 729, (S)-8-chloro-4-((3-chloro-4-fluorophenyl)amino)-6-((phenyl (1-(pyridin-2-ylmethyl)-1H-1,2,3-triazol-4-yl)methyl)amino)quinoline-3-carbonitrile] |  | 532 |  |  | 32
8 | CC(C)(C)CNc1c(C#N)cnc2c(Cl)cc(N[C@@H](c3ccccc3)c3cn(C4CCN(C(C)(C)C)CC4)nn3)cc12 [Example 543, (S)-6-(((1-(1-(tert-butyl)piperidin-4-yl)-1H-1,2,3-triazol-4-yl)(phenyl)methyl)amino)-8-chloro-4-(neopentylamino)quinoline-3-carbonitrile] |  | 51 |  |  | 7
9 | [2H][C@](Nc1cc(Cl)c2ncc(C#N)c(NC3CCOC(C)(C)C3)c2c1)(c1ccc(F)cc1)c1cn(C2CC2)nn1 (stereo partly drawn) [Example 64, 8-chloro-6-(((S)-(1-cyclopropyl-1H-1,2,3-triazol-4-yl)(4-fluorophenyl)methyl-d)amino)-4-((2,2-dimethyltetrahydro-2H-pyran-4-yl)amino) quinoline-3-carbonitrile] | 106 | > 1000 |  |  | 
10 | [2H][C@](Nc1cc(Cl)c2ncc(C#N)c(NC(C)CCO)c2c1)(c1ccc(F)cc1)c1cn(C2CC2)nn1 (stereo partly shown) [Example 174] | 837 | > 10000 |  |  | 
11 | CC(C)(C)N1CCC(n2cc([C@@H](Nc3cc(Cl)c4ncc(C#N)c(Nc5ccc(Cl)cc5)c4c3)c3ccc(Cl)cc3)nn2)CC1 [Example 740, (S)-6-(((1-(1-(tert-butyl)piperidin-4-yl)-1H-1,2,3-triazol-4-yl)(4-chlorophenyl)methyl)amino)-8-chloro-4-((4-chlorophenyl)amino)quinoline-3-carbonitrile] |  | 5550 |  |  | 244
12 | [2H][C@](Nc1cc(Cl)c2ncc(C#N)c(N[C@H](CC)c3cccc(C)c3)c2c1)(c1ccc(F)cc1)c1cn(C2CC2)nn1 [Example 281, 8-chloro-6-(((S)-(1-cyclopropyl-1H-1,2,3-triazol-4-yl)(4-fluorophenyl)methyl-d)amino)-4-(((R)-1-(m-tolyl)propyl)amino)quinoline-3-carbonitrile] | 68 | 1040 |  |  | 
13 | [2H][C@](Nc1cc(Cl)c2ncc(C#N)c(NC3(CC)CCC3)c2c1)(c1ccc(F)cc1)c1cn(C2CC2)nn1 [Example 218, (S)-8-chloro-6-(((1-cyclopropyl-1H-1,2,3-triazol-4-yl)(4-fluorophenyl)methyl-d)amino)-4-((1-ethylcyclobutyl)amino)quinoline-3-carbonitrile] | 432 | 5390 |  |  | 
14 | [2H][C@](Nc1cc(Cl)c2ncc(C#N)c(N[C@H](CC)c3ccccc3)c2c1)(c1cccc(C#N)c1)c1cn(C(C)(C)C)nn1 [Example 252, 6-(((S)-(1-(tert-butyl)-1H-1,2,3-triazol-4-yl)(3-cyanophenyl)methyl-d)amino)-8-chloro-4-(((R)-1-phenylpropyl)amino)quinoline-3-carbonitrile] | 5 | 80 |  |  | 
15 | [2H][C@](Nc1cc(Cl)c2ncc(C#N)c(Nc3cccc(Cl)c3C)c2c1)(c1ccc(F)cc1)c1cn(C2CC2)nn1 [Example 159, (S)-8-chloro-4-((3-chloro-2-methylphenyl)amino)-6-(((1-cyclopropyl-1H-1,2,3-triazol-4-yl)(4-fluorophenyl)methyl-d)amino)quinoline-3-carbonitrile] | 114 | 1340 |  |  | 
16 | CC(=O)N(C)c1cccc([C@H](Nc2cc(Cl)c3ncc(C#N)c(Nc4ccc(F)c(Cl)c4)c3c2)c2cn(C3CCN(C(C)(C)C)CC3)nn2)c1 [Example 623, (S)-N-(3-((1-(1-(tert-butyl)piperidin-4-yl)-1H-1,2,3-triazol-4-yl)((8-chloro-4-((3-chloro-4-fluorophenyl)amino)-3-cyanoquinolin-6-yl)amino)methyl)phenyl)-N-methylacetamide] |  | 90 |  |  | 1

Now from value to molecule:

Row | IC50 [1, 3] [nM] | EC50 [2, 4] [nM] | IC50 [1, 5] [nM] | EC50 [2, 6] [nM] | IC50 [1, 7] [nM] | SMILES
17 |  |  | 14 | 462 |  | CC(C)(C)CNc1c(C#N)cnc2c(F)cc(N[C@H](c3cn(C4CC4)nn3)c3ccccc3Cl)cc12 [Example 1015, (S)-6-(((2-chlorophenyl)(1-cyclopropyl-1H-1,2,3-triazol-4-yl)methyl)amino)-8-fluoro-4-(neopentylamino)quinoline-3-carbonitrile]
18 |  |  | 194 | 8580 |  | CCN1CCC(n2cc([C@H](Nc3cc(Cl)c4ncc(C#N)c(Nc5ccc(F)c(Cl)c5)c4c3)c3ccccc3)nn2)CC1 [Example 918, (R)-8-chloro-4-((3-chloro-4-fluorophenyl)amino)-6-(((1-(1-ethylpiperidin-4-yl)-1H-1,2,3-yl)(phenyl)methyl)amino) quinoline-3-carbonitrile]
19 |  |  | 28 | 921 |  | Cc1c(-c2ccccn2)cccc1[C@H](Nc1cc(Cl)c2ncc(C#N)c(NCC(C)(C)C)c2c1)c1cn(C2(C(F)(F)F)CC2)nn1 [Example 1118, (S)-8-chloro-6-(((2-methyl-3-(pyridin-2-yl)phenyl)(1-(1-(trifluoromethyl)cyclopropyl)-1H-1,2,3-triazol-4-yl)methyl)amino)-4-(neopentylamino)quinoline-3-carbonitrile]
20 |  | 196 |  |  | 4 | CCN1CCC(n2cc([C@@H](Nc3ccc4ncc(C#N)c(Nc5ccc(F)c(Cl)c5)c4c3)c3ccccc3)nn2)CC1 [Example 779, (S)-4-((3-chloro-4-fluorophenyl)amino)-6-(((1-(1 ethylpiperidin-4-yl)-1H-1,2,3-triazol-4-yl)(phenyl)methyl)amino)quinoline-3-carbonitrile]
21 |  |  | 13 | 63 |  | Cc1cc(F)ccc1[C@H](Nc1cc(C#N)c2ncc(C#N)c(NCC(C)(C)C)c2c1)c1cn(C2(C(F)F)CC2)nn1 [Example 1083, (S)-6-(((1-(1-(difluoromethyl)cyclopropyl)-1H-1,2,3-triazol-4-yl)(4-fluoro-2-methylphenyl)methyl)amino)-4-(neopentylamino)quinoline-3,8-dicarbonitrile]
22 |  |  | 19 | 220 |  | CC(C)(C)CNc1c(C#N)cnc2c(C#N)cc(N[C@H](c3cn(C4(C(F)(F)F)CC4)nn3)c3cccc(C#N)c3Cl)cc12 [Example 1079, (S)-6-(((2-chloro-3-cyanophenyl)(1-(1-(trifluoromethyl)cyclopropyl)-1H-1,2,3-triazol-4-yl)methyl)amino)-4-(neopentylamino)quinoline-3,8-dicarbonitrile]
23 |  |  | 3 | 27 |  | Cc1c(C#N)cccc1[C@H](Nc1cc(Cl)c2ncc(C#N)c(NCC(C)(C)C)c2c1)c1cn(C2(C)CC2)nn1 [Example 1101, (S)-8-chloro-6-(((3-cyano-2-methylphenyl)(1-(1-methylcyclopropyl)-1H-1,2,3-triazol-4-yl)methyl)amino)-4-(neopentylamino)quinoline-3-carbonitrile]
